Reference: patent US12215387B2, “Biomarker predictive of responsiveness to alpha 7 nicotinic acetylcholine receptor activator treatment” (Novartis AG, priority 2012, dated 2025)

Test system: patients with schizophrenia
Assay: Continuous Paired Associates Learning (CPAL) test of the CogState schizophrenia battery, by CYP1A2 rs2069514 genotype
Type: in vivo, human
Excerpt: To measure the effect of alpha 7 nicotinic acetylcholine receptor activator treatment on the cognitive skills of schizophrenic patients, an adequate cognitive test battery (CogState™) with short duration (as described in detail below) was applied allowing multiple time points measurements during the treatment period (Pietrzak, et al 2009; Maruff, et al 2009).
The CPAL task is a validated test that assesses visual episodic memory (associate learning). This test has been used previously in schizophrenia. Before beginning this task, the test supervisor reads the full instructions to the patient from the test supervisor script. On the CPAL test, participants must learn a series of associations between a set of difficult to verbalize patterns and locations. In the presentation phase of the task, the pattern appears at the location and the subject is required to acknowledge that they have seen the pattern by touching the location at which it appears. At this stage of the task the patient will also see that there are two locations at which no target appears (distractor locations). Patterns are presented, in random order. However, once presented the pattern remains at the same location throughout the task. In the learning phase of the task, patients must place each of the eight patterns in their correct locations. They must do this in six rounds. For the first round, one of the patterns is presented in the centre location and the subject is required to remember the location at which it had been shown. They indicate the location by touching it. If they touch the incorrect location, a visual and audible signal occurs (a red cross appears over the location and a buzzer sound is presented). The patient is then required to choose a second location. This process continues until the patient has correctly placed all […] of the targets in their correct locations. Once all eight patterns have been placed correctly, the second round begins. In the second round the patterns remain in the same locations, but their order of presentation in the centre of the screen is different to that of the first round (randomized). The process of placing each target in the correct location proceeds as it did in the first round. When the second round is complete, the same process is repeated as the rounds progress the number of errors made in placing the patterns in their correct locations reduces. Administration time is approximately 5 minutes in healthy volunteers. Patients with Schizophrenia would be expected to complete the task within about 12 minutes.
The assessment of activity was obtained from a statistical analysis of the post dose Area Under the Effect Curve (AUEC) 4-10 on CPAL as follows: variables were separately analyzed by means of a linear mixed effect model adjusted for the period-specific baseline value for the scale, the treatment group, the period, and the sequence as fixed effects, and for the patient as a random effect. The period-specific baseline value for the scale was obtained from the average of the period-specific Day −1 values and from the pre-dose value. The mean treatment difference (and its 95% CI) between each B-5 dose group and placebo was obtained from the model. The effect size was obtained by dividing the mean treatment difference (and its 95% CI) by the square root of twice the estimated variance of the residual error. Activity, as defined in the paragraph above, was assessed from the effect size of CPAL.
In an attempt to identify a subset of patients who respond to B-5 treatment, a study in a population of 29 individuals using the CPAL assessment was conducted. The purpose was to investigate the relationship between the genetic variants rs2069514 (SEQ IDs NO. 1 and 2) in the CYP1A2 gene and B-5 efficacy in the study. In the study, B-5 mono-fumarate was used in the form of hard gelatin capsules as described in Example E. […]

## Cc1ccc(-c2ccc(O[C@H]3CN4CCC3CC4)cn2)cc1 [B-5, (R)-3-(6-p-tolyl-pyridin-3-yloxy)-1-aza-bicyclo[2.2.2]octane]
CYP1A2 genotype GG (n = 15), B-5 2 mg
  CPAL - AUC4-10 Estimated mean AUC 4-10: 414.75 Total # errors × Hours
CYP1A2 genotype GG (n = 15), B-5 2 mg, P-value 0.59
  CPAL - AUC4-10 Placebo - B-5 Effect size: 0.15
CYP1A2 genotype GG (n = 15), B-5 15 mg
  CPAL - AUC4-10 Estimated mean AUC 4-10: 481.4 Total # errors × Hours
CYP1A2 genotype GG (n = 15), B-5 15 mg, P-value 0.6706
  CPAL - AUC4-10 Placebo - B-5 Effect size: −0.12
CYP1A2 genotype GG (n = 15), B-5 100 mg
  CPAL - AUC4-10 Estimated mean AUC 4-10: 457.45 Total # errors × Hours
CYP1A2 genotype GG (n = 15), B-5 100 mg, P-value 0.9344
  CPAL - AUC4-10 Placebo - B-5 Effect size: −0.02
CYP1A2 genotypes AA + AG (n = 14), B-5 2 mg
  CPAL - AUC4-10 Estimated mean AUC 4-10: 411.15 Total # errors × Hours
CYP1A2 genotypes AA + AG (n = 14), B-5 2 mg, P-value 0.018
  CPAL - AUC4-10 Placebo - B-5 Effect size: 0.68
CYP1A2 genotypes AA + AG (n = 14), B-5 15 mg
  CPAL - AUC4-10 Estimated mean AUC 4-10: 372.82 Total # errors × Hours
CYP1A2 genotypes AA + AG (n = 14), B-5 15 mg, P-value 0.0023
  CPAL - AUC4-10 Placebo - B-5 Effect size: 0.91
CYP1A2 genotypes AA + AG (n = 14), B-5 100 mg
  CPAL - AUC4-10 Estimated mean AUC 4-10: 384.9 Total # errors × Hours
CYP1A2 genotypes AA + AG (n = 14), B-5 100 mg, P-value 0.0043
  CPAL - AUC4-10 Placebo - B-5 Effect size: 0.83
Patients homozygous rs2069514-G/G
  improvement on cognitive function: did not show any significant improvement
Patients rs2069514 A/A or A/G, 2 mg p=0.018, 15 mg p=0.0023, 100 mg p=0.0043
  response on visual learning and memory (CPAL) compared to placebo: significant response
